“Also recorded” adds a separate entry of the source. Like-named read-outs stand apart in the source and are kept apart here.
What was measured:
[1] = molecular target: N2 (Influenza A virus (A/Tokyo/3/1967(H2N2)), UniProt P06820); assay type: binding
[2] = molecular target: T1, type B (B/Memphis/3/89) neuraminidase (Influenza B virus (B/Memphis/3/89), UniProt P16199); assay type: biochemical; conditions: read-out: IC50, Fetuin substrate, B/Mem/89
[3] = molecular target: T1, type B (B/Memphis/3/89) neuraminidase; assay type: biochemical; conditions: read-out: IC50, MUN substrate, B/Mem/89
[4] = molecular target: T2, N2 (A/Tokyo/67) neuraminidase (Influenza A virus, UniProt P06820); test: biochemical; parameters: species or system influenza A virus (A/Tokyo/67)
[5] = molecular target: T2, N2 (A/Tokyo/67) neuraminidase; test: biochemical; parameters: species or system influenza A virus (A/Tokyo/67); remark: listed apart in the source
influenza B = conditions: cited from earlier work
influenza subtype A = conditions: cited from earlier work
influenza NA [6] = assay type: biochemical, influenza virus type A or type B
influenza neuraminidase = conditions: cited from earlier work
influenza A neuramidase = conditions: Taylor & von Itzstein, 1994; cited from earlier work
Influenza NA [7] = conditions: trisaccharide substrate; cited from earlier work
[8] = whole virus, 50% inhibition of NA activity, MUN, 15 minutes at 37° C, pH 6.0

T2 sequence (P06820 whole entry, looked up): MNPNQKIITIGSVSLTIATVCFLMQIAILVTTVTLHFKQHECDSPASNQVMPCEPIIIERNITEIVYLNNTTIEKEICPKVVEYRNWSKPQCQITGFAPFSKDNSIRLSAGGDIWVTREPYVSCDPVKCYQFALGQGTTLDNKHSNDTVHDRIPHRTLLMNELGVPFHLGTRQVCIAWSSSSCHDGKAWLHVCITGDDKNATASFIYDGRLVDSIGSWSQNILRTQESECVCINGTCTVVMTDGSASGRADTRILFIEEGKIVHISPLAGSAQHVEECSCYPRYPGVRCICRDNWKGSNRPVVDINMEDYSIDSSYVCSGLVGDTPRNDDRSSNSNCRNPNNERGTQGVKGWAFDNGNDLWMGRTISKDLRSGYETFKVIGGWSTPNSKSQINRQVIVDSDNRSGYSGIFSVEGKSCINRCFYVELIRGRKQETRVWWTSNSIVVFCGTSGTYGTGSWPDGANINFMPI
Chain of N2 (Influenza A virus (A/Tokyo/3/1967(H2N2)), UniProt P06820) (P06820 whole entry, looked up): as above
T1 sequence (P16199 whole entry, looked up): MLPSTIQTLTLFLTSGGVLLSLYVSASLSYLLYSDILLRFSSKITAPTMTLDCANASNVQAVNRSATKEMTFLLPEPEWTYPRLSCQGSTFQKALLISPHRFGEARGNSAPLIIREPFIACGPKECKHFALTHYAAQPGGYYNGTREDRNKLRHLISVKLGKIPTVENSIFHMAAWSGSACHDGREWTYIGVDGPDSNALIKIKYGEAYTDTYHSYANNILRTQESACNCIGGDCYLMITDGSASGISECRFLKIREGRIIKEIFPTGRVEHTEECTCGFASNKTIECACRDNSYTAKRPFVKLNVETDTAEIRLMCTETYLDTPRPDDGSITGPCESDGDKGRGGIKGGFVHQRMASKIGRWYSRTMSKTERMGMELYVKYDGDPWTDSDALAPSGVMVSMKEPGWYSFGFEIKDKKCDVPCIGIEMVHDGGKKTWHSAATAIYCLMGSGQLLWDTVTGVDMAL

| Compound | IC50 [2] [mM] | IC50 ([3]; pH 6) [mM] | IC50 [4] [mM] | IC50 [5] [mM] | also measured |
| --- | --- | --- | --- | --- | --- |
| CC(=O)Nc1c(N)cc(C(=O)O)cc1O.Cl [Compound 106, 3-amino-4-(acetylamino)-5-hydroxybenzoic acid, hydrochloride] | > 10 | 10 | > 10 | > 10 | binding to N2 [1]: bind fairly well |
| NC12CC3CC(CC(C3)C1)C2 [amantadine] | – | – | – | – | effect on influenza B (influenza B): no effect on influenza B; effect against influenza A (influenza subtype A): effective only against influenza subtype A |
| CC(=O)Nc1ccc(C(=O)O)cc1NC(=O)CO [Compound 109, 4-(acetylamino)-3-[(hydroxyacetyl)amino]benzoic acid] | 10 | 3 | 4 | > 10 | – |
| CC(=O)Nc1ccc(C(=O)O)cc1[N+](=O)[O-] [Compound 107] | – | – | 5 | 5 | IC50 ([2]; whole virus, 50% inhibition of NA activity, fetuin): 5 mM; IC50 [3, 8]: 5 mM; Change in activity from nitro group alone or phenol OH alone (influenza NA [6]): did not result in significant changes in activity |
| O=C(O)C1=C[C@H](O)[C@@H](NC(=O)C(F)(F)F)[C@H]([C@H](O)[C@H](O)CO)O1 [FANA, 2-deoxy-2,3-dehydro-N-(trifiuoroacetyl)neuraminic acid] | – | – | – | – | in vitro activity compared with DANA (influenza neuraminidase; Palese and Compans, 1976): greater in vitro activity |
| CC(=O)Nc1ccc(C(=O)O)cc1OC(C)=O [Compound 102, 4-(acetylamino)-3-acetoxybenzoic acid] | 5 | > 10 | > 10 | 10 | – |
| CC(N)C12CC3CC(CC(C3)C1)C2 (stereo not shown) [rimantadine] | – | – | – | – | effect on influenza B (influenza B): no effect on influenza B; effect against influenza A (influenza subtype A): effective only against influenza subtype A |
| CC(=O)N[C@H]1[C@H]([C@H](O)[C@H](O)CO)OC(C(=O)O)=C[C@@H]1O [DANA, 2-deoxy-2,3-dehydro-N-acetylneuraminic acid, reference compound] | 0.015 | 0.015 | 0.015 | 0.015 | Ki (influenza neuraminidase; in vitro, influenza neuraminidase): 0.01 mM; Ki (influenza A neuramidase): 0.004 mM |
| CC(=O)Nc1cc([N+](=O)[O-])c(C(=O)O)c([N+](=O)[O-])c1O [Compound 103, 4-(acetylamino)-3-hydroxy-2,6-dinitrobenzoic acid] | 4 | 1 | – | – | – |
| CC(=O)Nc1ccc(C(=O)O)cc1NC(=O)C(O)CO (stereo not shown) [Compound 110, 4-(acetylamino)-3-[(2,3-dihydroxypropionyl)amino]benzoic acid] | > 10 | 8 | – | – | – |
| CC(=O)Nc1ccc(C(=O)O)cc1NC(=O)CCCN [Compound 112, 4-(acetylamino)-3-[(4-aminobutanoyl)amino]benzoic acid] | > 10 | > 10 | > 10 | > 10 | – |
| CC(=O)Nc1ccc(C(=O)O)cc1NC(=O)CN [Compound 111, 4-(acetylamino)-3-[(aminoacetyl)amino]benzoic acid] | 5 | – | 5 | – | – |
| CC(=O)Nc1ccc(C(=O)O)cc1N [Compound 108, 4-(acetylamino)-3-aminobenzoic acid] | – | > 20 | > 10 | > 10 | binding to N2 [1]: binds the weakest to N2 |
| CC(=O)Nc1c(O)cc(C(=O)O)cc1[N+](=O)[O-] [Compound 105, 4-(acetylamino)-3-hydroxy-5-nitrobenzoic acid] | 1 | 0.75 | – | – | binding to N2 [1]: binds strongest to N2; Activity compared with sialic acid (influenza NA [6]): significantly more potent than sialic acid; also recorded: enhanced activity |
| CC(=O)Nc1ccc(C(=O)O)cc1O [Compound 101, 4-(acetylamino)-3-hydroxybenzoic acid] | 10 | > 10 | > 10 | 10 | Change in activity from nitro group alone or phenol OH alone (influenza NA [6]): did not result in significant changes in activity |
| CC(=O)N[C@H]1[C@H]([C@H](O)[C@H](O)CO)OC(O)(C(=O)O)C[C@@H]1O (stereo partly shown) [sialic acid, N-acetylneuraminic acid, reference compound] | – | – | – | – | Ki (influenza neuraminidase): ~1 mM; IC50 [3, 8]: > 10 mM; IC50 (influenza NA [6]; whole virus screen, MUN and fetuin, read-out: IC50 (modest product inhibitor)): 10 mM |
| CC(=O)Nc1c(OC(C)=O)cc(C(=O)O)cc1[N+](=O)[O-] [Compound 104, 3-acetoxy-4-(acetylamino)-5-nitrobenzoic acid] | 5 | 2 | – | – | – |
| N-acetyl neuraminyl lactose | – | – | – | – | Km (Influenza NA [7]): ~400 µM |

Source: patent publication US5453533A (priority 1994, dated 1995)
